Patent publication US20240043395A1, “COMPOUNDS AND COMPOSITIONS AS MODULATORS OF TLR SIGNALING” (Neuropore Therapies, Inc., priority 2020, published 2024)

Experiments:
human TLR2 [1] = target: T1, human TLR2 (Homo sapiens (Human), UniProt O60603); assay: HEK-Blue hTLR2 antagonism assay (SEAP reporter), agonist Pam3CSK4; type: cell-based; conditions: HEK-Blue hTLR2 cells; Pam3CSK4 (TLR1/2 agonist) at approx. 3×EC50; 18 h; 8-point dilutions
Protocol: (§1) Synthetic diacylated lipoprotein (Pam2CSK4, TLR2/6 agonist) and synthetic triacylated lipoprotein (Pam3CSK4, TLR1/2 agonist) were obtained from InvivoGen and were dissolved in endotoxin-free water to a concentration 1 mg/mL, vortexed until complete solubilization, and stored in aliquots at −20° C. Prior to addition to cells, an aliquot of the dissolved ligand was vortexed shortly and then was diluted in medium to 25 ng/mL Pam2CSK4 or 1000 ng/mL Pam3CSK4.
(§2) Test compounds were solubilized fresh to 10-20 mM stocks in DMSO and sonicated for 5-10 minutes in a water bath sonicator. Serial dilutions were prepared in DMSO, and then diluted in medium. The final concentration of DMSO used in the assay was 1%.
(§3) HEK-Blue hTLR2 reporter cells (InvivoGen) are HEK-293 cells stably expressing both the human TLR2 gene and a secreted embryonic alkaline phosphatase (SEAP) reporter construct downstream of NFκB promotor sites. HEK-Blue hTLR2 reporters were cultured according to manufacturer's protocol using Dulbecco's Modified Eagle Medium (DMEM; Gibco) containing 1× GlutaMax (Gibco), 10% heat-inactivated Fetal Bovine Serum (Gibco), Pen-Strep (50 U/mL penicillin, 50 μg/mL streptomycin, Gibco), 100 μg/mL Normocin (InvivoGen), and the selective antibiotic, lx HEK-Blue Selection (InvivoGen). Quanti-Blue reagent (InvivoGen) for detection and quantification of secreted alkaline phosphatase was dissolved in 100 mL of endotoxin-free water, warmed to 37° C. for 30 minutes and then filtered using a 0.2 μm membrane.
(§4) On day 1, 50 μL of each test compound dilution in duplicates or a vehicle control was added to each well of a 96-well plate followed by addition of 150 μL of HEK-Blue hTLR2 cell suspension (1×10^5 cells/well) and incubated at 37° C./5% CO2 for 2 h. Next, 50 μL of an approximate 3×EC50 concentration of each agonist (Pam2CSK4 or Pam3CSK4) was added to the wells containing test compounds or the vehicle control. The plates were then incubated at 37° C./5% CO2 for 18 h. For each assay run, non-treated HEK-Blue hTLR2 cells were treated with serial dilutions of agonists to determine EC50 values for the respective run.
(§5) On day 2, secreted alkaline phosphatase (SEAP) activity was detected in cell culture supernatants. In brief, 20 μL was collected from each well and transferred to a 96-well plate. Next, 200 μL of Quanti-Blue detection reagent was added to each well. Plates were incubated at room temperature for 15 min and SEAP activity was assessed by spectrophotometer OD reading at 655 nm. […] IC50 values were calculated based on 8-point dilutions for each compound.

human TLR2 [2] = target: T1, human TLR2; assay: HEK-Blue hTLR2 antagonism assay (SEAP reporter), agonist Pam2CSK4; type: cell-based; conditions: HEK-Blue hTLR2 cells; Pam2CSK4 (TLR2/6 agonist) at approx. 3×EC50; 18 h; 8-point dilutions
Protocol: as §1, §2, §3, §4, §5

T1 sequence (O60603 21-784): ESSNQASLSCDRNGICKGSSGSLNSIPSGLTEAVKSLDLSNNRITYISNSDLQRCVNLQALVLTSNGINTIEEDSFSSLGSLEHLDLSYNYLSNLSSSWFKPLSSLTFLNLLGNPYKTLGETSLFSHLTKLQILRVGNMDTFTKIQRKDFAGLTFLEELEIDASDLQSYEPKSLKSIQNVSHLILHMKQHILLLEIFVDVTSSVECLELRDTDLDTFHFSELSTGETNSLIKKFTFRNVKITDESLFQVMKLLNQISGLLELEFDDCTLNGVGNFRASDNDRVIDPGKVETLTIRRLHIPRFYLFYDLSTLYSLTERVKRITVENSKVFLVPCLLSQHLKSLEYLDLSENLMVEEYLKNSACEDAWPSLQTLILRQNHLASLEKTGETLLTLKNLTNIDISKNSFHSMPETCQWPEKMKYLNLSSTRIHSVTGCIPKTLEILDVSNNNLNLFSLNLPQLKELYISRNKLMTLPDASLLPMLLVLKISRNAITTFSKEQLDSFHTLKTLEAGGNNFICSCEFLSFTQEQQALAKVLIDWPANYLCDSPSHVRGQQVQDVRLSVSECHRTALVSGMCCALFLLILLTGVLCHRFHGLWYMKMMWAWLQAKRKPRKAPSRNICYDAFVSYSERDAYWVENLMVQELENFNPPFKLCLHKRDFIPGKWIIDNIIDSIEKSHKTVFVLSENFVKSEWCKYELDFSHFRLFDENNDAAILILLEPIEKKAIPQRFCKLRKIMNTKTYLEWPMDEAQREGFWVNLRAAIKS

Row | Structure (SMILES) | IC50 (human TLR2 [1]) [µM] | IC50 (human TLR2 [2]) [µM]
1 | O=Cc1cc(C(=O)N2CCN(c3ccc(N4CCCC4)nc3)CC2)cc(F)c1O [Compound 140, 3-fluoro-2-hydroxy-5-(4-(6-(pyrrolidin-1-yl)pyridin-3-yl)piperazine-1-carbonyl)benzaldehyde] | 7.2 | 14
2 | O=Cc1cc(C(=O)NCCCc2ccc(N3CCCC3)cc2)cc(F)c1O [Compound 144, 3-fluoro-5-formyl-4-hydroxy-N-(3-(4-(pyrrolidin-1-yl)phenyl)propyl)benzamide] | 5.3 | 9.3
3 | O=Cc1cc(C(=O)c2ccc(N3CCCC3)cc2)cc(F)c1O [Compound 14, 3-fluoro-2-hydroxy-5-(4-(pyrrolidin-1-yl)benzoyl)benzaldehyde] | 18.7 | 18.2
4 | CN(C(=O)c1cc(F)c(O)c(C=O)c1)C12CC(c3ccccc3)(C1)C2 [Compound 158, 3-fluoro-5-formyl-4-hydroxy-N-methyl-N-(3-phenylbicyclo[1.1.1]pentan-1-yl)benzamide] | 2.25 | 5.9
5 | O=Cc1cc(C(=O)N2CCC(c3ccc(N4CCCC4)cc3)C2)cc(F)c1O (stereo not drawn) [Compound 82, 3-fluoro-2-hydroxy-5-(3-(4-(pyrrolidin-1-yl)phenyl)pyrrolidine-1-carbonyl)benzaldehyde] | 3.5 | 8.4
6 | O=Cc1cc(C(=O)Nc2ncc(-c3ccc(N4CCCC4)cc3)s2)cc(F)c1O [Compound 13, 3-fluoro-5-formyl-4-hydroxy-N-(5-(4-(pyrrolidin-1-yl)phenyl)thiazol-2-yl)benzamide] | 1 | 1.5
7 | CN1C(=O)Oc2c(F)cc(-c3nc(-c4ccc(N5CCCC5)cc4)ns3)cc2C1O (stereo not drawn) [Compound 178, 8-fluoro-4-hydroxy-3-methyl-6-(3-(4-(pyrrolidin-1-yl)phenyl)-1,2,4-thiadiazol-5-yl)-3,4-dihydro-2H-benzo[e][1,3]oxazin-2-one] | 0.43 | 1.2
8 | O=Cc1cc(C(=O)Nc2coc(-c3ccccc3)n2)cc(F)c1O [Compound 15, 3-fluoro-5-formyl-4-hydroxy-N-(2-phenyloxazol-4-yl)benzamide] | 0.9 | 4.1
9 | O=Cc1cc(COC(=O)Nc2cccc(N3CCCC3)c2)cc(F)c1O [Compound 159, 3-fluoro-5-formyl-4-hydroxybenzyl (3-(pyrrolidin-1-yl)phenyl)carbamate] | 4.39 | 9.29
10 | O=Cc1cc(-c2nc(-c3ccc(N4CC(F)(F)C4)cc3)ns2)cc(F)c1O [Compound 169, 5-(3-(4-(3,3-difluoroazetidin-1-yl)phenyl)-1,2,4-thiadiazol-5-yl)-3-fluoro-2-hydroxybenzaldehyde] | 1.3 | 2.5
11 | COCCOCC(=O)Oc1c(F)cc(-c2nc(-c3ccc(N4CCCC4)cc3)ns2)cc1C=O [Compound 176, 2-fluoro-6-formyl-4-(3-(4-(pyrrolidin-1-yl)phenyl)-1,2,4-thiadiazol-5-yl)phenyl 2-(2-methoxyethoxy)acetate] | 0.6 | 2
12 | CN1CCN(C(=O)Oc2c(F)cc(-c3nc(-c4ccc(N5CCCC5)cc4)ns3)cc2C=O)CC1 [Compound 175, 2-fluoro-6-formyl-4-(3-(4-(pyrrolidin-1-yl)phenyl)-1,2,4-thiadiazol-5-yl)phenyl 4-methylpiperazine-1-carboxylate] | 0.3 | 1.2
13 | O=Cc1cc(C(=O)N2CC[C@H](c3ccc(N4CCCC4)cc3)C2)cc(F)c1O (single isomer, unassigned) [Compound 156] | 3.2 | 3.7
14 | COc1ccc(C2CN(C(=O)c3cc(F)c(O)c(C=O)c3)CCS2)cc1 (racemic) [Compound 152, rac-3-fluoro-2-hydroxy-5-(2-(4-methoxyphenyl)thiomorpholine-4-carbonyl)benzaldehyde] | 5.7 | 14.2
15 | O=Cc1cc(-c2nc(-c3ccc(N4CCCC4)cc3)ns2)cc(F)c1OC(=O)OC1CCOC1 (stereo not drawn) [Compound 162, 2-fluoro-6-formyl-4-(3-(4-(pyrrolidin-1-yl)phenyl)-1,2,4-thiadiazol-5-yl)phenyl tetrahydrofuran-3-yl carbonate] | 4.3 | 11.5
16 | O=Cc1cc(C(=O)Nc2ncc(-c3ccc(C(F)(F)F)cc3)s2)cc(F)c1O [Compound 115, 3-fluoro-5-formyl-4-hydroxy-N-(5-(4-(trifluoromethyl)phenyl)thiazol-2-yl)benzamide] | 0.6 | 1
17 | NS(=O)(=O)c1ccc(-c2nsc(-c3cc(F)c(O)c(C=O)c3)n2)cc1 [Compound 170, 4-(5-(3-fluoro-5-formyl-4-hydroxyphenyl)-1,2,4-thiadiazol-3-yl)benzenesulfonamide] | 5.36 | 17.7
18 | O=Cc1cc(C(=O)N2CCOC(c3ccc(N4CCCC4)cc3)C2)cc(F)c1O (racemic) [Compound 147, 3-fluoro-2-hydroxy-5-(2-(4-(pyrrolidin-1-yl)phenyl)morpholine-4-carbonyl)benzaldehyde] | 1.6 | 4.7
19 | O=Cc1cc(-c2scnc2-c2ccccc2)cc(F)c1O [Compound 18, 3-fluoro-2-hydroxy-5-(4-phenylthiazol-5-yl)benzaldehyde] | 20.3 | 22.2
20 | C[n+]1ccccc1Oc1c(F)cc(-c2nc(-c3ccc(N4CCCC4)cc3)ns2)cc1C=O [Compound 177, 2-(2-fluoro-6-formyl-4-(3-(4-(pyrrolidin-1-yl)phenyl)-1,2,4-thiadiazol-5-yl)phenoxy)-1-methylpyridinium iodide] | 0.6 | 1.6
21 | O/N=C\c1cc(-c2nc(-c3ccc(N4CCCC4)cc3)ns2)cc(F)c1O [Compound 171, 3-fluoro-2-hydroxy-5-(3-(4-(pyrrolidin-1-yl)phenyl)-1,2,4-thiadiazol-5-yl)benzaldehyde oxime] | 1.03 | 2.52
22 | O=Cc1cc(C(=O)Nc2nnc(N3CCCCC3)s2)cc(F)c1O [Compound 1, 3-fluoro-5-formyl-4-hydroxy-N-(5-(piperidin-1-yl)-1,3,4-thiadiazol-2-yl)benzamide] | 21.8 | 45.8
23 | O=Cc1cc(C(=O)N2CC(c3ccc(N4CCCC4)cc3)C2)cc(F)c1O [Compound 84, 3-fluoro-2-hydroxy-5-(3-(4-(pyrrolidin-1-yl)phenyl)azetidine-1-carbonyl)benzaldehyde] | 3.8 | 6.2
24 | O=Cc1cc(C(=O)N2CCC(c3ccc(N4CCCC4)cc3)CC2)cc(F)c1O [Compound 34, 3-fluoro-2-hydroxy-5-(4-(4-(pyrrolidin-1-yl)phenyl)piperidine-1-carbonyl)benzaldehyde] | 0.4 | 0.9
25 | O=Cc1cc(C(=O)Nc2nc(-c3ccccc3)ns2)cc(F)c1O [Compound 121, 3-fluoro-5-formyl-4-hydroxy-N-(3-phenyl-1,2,4-thiadiazol-5-yl)benzamide] | 7.9 | 15.9
26 | O=Cc1cc(C(=O)Nc2ncc(N3CCCCC3)s2)cc(F)c1O [Compound 3, 3-fluoro-5-formyl-4-hydroxy-N-(5-(piperidin-1-yl)thiazol-2-yl)benzamide] | 1.7 | 2.3
27 | COc1cc(-c2cnn(-c3ccc(C(F)(F)F)cc3)c2)cc(C=O)c1O [Compound 128, 2-hydroxy-3-methoxy-5-(1-(4-(trifluoromethyl)phenyl)-1H-pyrazol-4-yl)benzaldehyde] | 0.8 | 0.7
28 | O=Cc1cc(C(=O)N2CCO[C@H](c3ccc(N4CCCC4)cc3)C2)cc(F)c1O (single isomer, unassigned) [Compound 149] | 1.74 | 4.34
29 | O=Cc1cc(C(=O)Nc2nc(-c3ccccc3)cs2)cc(F)c1O [Compound 6, 3-fluoro-5-formyl-4-hydroxy-N-(4-phenylthiazol-2-yl)benzamide] | 3.3 | 5.1
30 | O=Cc1cc(C(=O)N2CC[C@@H](c3ccc(N4CCCC4)cc3)C2)cc(F)c1O (single isomer, unassigned) [Compound 157] | 2.2 | 3
